In patent US20140179726A1, “GUT MICROFLORA AS BIOMARKERS FOR THE PROGNOSIS OF CIRRHOSIS AND BRAIN DYSFUNCTION” (priority 2011, published 2014):

System: cirrhotic patients with HE
Assay: Cognitive performance, HE patients on rifaximin vs only on lactulose (Example 2)
Format: in vivo, human
Text: Patients with cirrhosis with or without HE were included for a one-time visit. We excluded patients with a current infection (defined by elevated white blood cell (WBC) count, clinical suspicion or fever), variceal bleeding within the last 4 weeks, on gut-absorbable antibiotics, or had alcohol or illicit drug intake within 3 months (checked by drug and alcohol screens). […] Patients in the “HE” group had suffered at least one HE episode within the last 3 months and were currently controlled on lactulose alone or lactulose with rifaximin.
During the visit, the subjects underwent a physical examination and measurement of body mass index (BMI), detailed analysis of medical records including current medications, a detailed dietary recall and collection of stool and blood samples. All subjects underwent a mini-mental status exam and only those scoring above 25 were included in the full study (14). Subsequently a recommended cognitive battery consisting of the following tests was administered; (a) Psychometric hepatic encephalopathy score (PHES), (b) block design test (subjects are required to replicate designs with given blocks in a timed manner) and (c) Inhibitory control test [ICT: Subjects are instructed to respond to alternating presentations of X and Y on the screen (targets) while inhibiting response when X and Y are not alternating (lures)] (5, 41). The PHES consists of number connection test-A/B (subjects are asked to “join the dots” between numbers or numbers and alphabets in a timed fashion), digit symbol (subjects are required to copy corresponding figures from a given list within 2 minutes), line drawing (time) and (errors): subjects are required to trace a line between two parallel lines and balance between speed and accuracy. Time required and the number of times the subject's line strays beyond the marked lines (errors) are recorded] and serial dotting (subjects are asked to dot the center of a group of blank circles)]. The PHES is a validated battery for cognitive dysfunction in cirrhosis and tests for psychomotor speed, visuo-motor coordination, attention and set-shifting(32). Block design tests for visuo-motor coordination. A high score on block, digit symbol and ICT targets and a low score on the rest indicate good performance.
Statistical analysis: Cirrhotics with HE were compared to those without HE with respect to BMI, inflammatory markers, cognitive performance and microbiome constituents. Unpaired t-tests were used to compare demographics, cognitive tests and inflammatory markers. Since the microbiome constituents tend to be sparse and non-parametrically distributed, we used Metastats to compare microbiome between stool and mucosa of patients with and without HE (42). Metastats performs statistical analysis (to investigate metagenomic differences) along with biomarker discovery (to evaluate specific features underlying these differences) based on repeated t statistics and Fisher's tests on random permutations (34). We also performed Metastats analysis between the mucosal microbiome compared to the stool microbiome in patients with HE and without HE and those in HE on or not on rifaximin. Principal Component Analysis (PCO) on the abundance tables and weighted and unweighted UNIFRAC analysis using the QIIME pipeline were also performed (22, 25). Subsequently, we analyzed the correlations between MELD score, BMI, inflammatory markers, cognitive tests and microbiome constituents using a correlation network analysis obtained through a customized statistical script in R (7) using a P-value cutoff of <0.05 and an R value >0.5 to identify the most significant relationships (4, 16).

OC[C@H]1O[C@@H](O[C@@H]2[C@@H](CO)OC(O)(CO)[C@H]2O)[C@H](O)[C@@H](O)[C@H]1O (mixture of isomers) [lactulose]
block design (high = good): 19.8 score | digit symbol (high = good): 38 score | targets (high = good): 90% | line tracing errors (high = poor): 44.9 | line tracing time (high = poor): 127.3 | lures (high = poor): 16.9 responses | number connection-A (high = poor): 52.25 s | number connection-B (high = poor): 145.8 s | serial dotting (high = poor): 84.0 s
